Activity calls are given as the source filed them.
Assays:
INS1 = assay: INS-1E survival protection against cytokine death – cell-based, luminescence, retest, dose response (AID 449756); type: functional; details: Rattus norvegicus;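 further: cell death triggered by IL-1 beta plus TNF-alpha plus IFN-gamma mixture; protective hits raise ATP signal compared with cytokine alone wells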
[1] = target: E3 ubiquitin-protein ligase UHRF1 (Homo sapiens, UniProt Q96T88); assay: Counterscreen for inhibitors of 5-meCpG-binding domain protein 2 (MBD2): TRFRET-based biochemical high throughput dose response assay to identify inhibitors of binding of ubiquitin-like with PHD and ring finger domains 1 (UHRF1) to methylated oligonucleotide.
Chain of E3 ubiquitin-protein ligase UHRF1 (Q96T88 whole entry, the tested form may be a part): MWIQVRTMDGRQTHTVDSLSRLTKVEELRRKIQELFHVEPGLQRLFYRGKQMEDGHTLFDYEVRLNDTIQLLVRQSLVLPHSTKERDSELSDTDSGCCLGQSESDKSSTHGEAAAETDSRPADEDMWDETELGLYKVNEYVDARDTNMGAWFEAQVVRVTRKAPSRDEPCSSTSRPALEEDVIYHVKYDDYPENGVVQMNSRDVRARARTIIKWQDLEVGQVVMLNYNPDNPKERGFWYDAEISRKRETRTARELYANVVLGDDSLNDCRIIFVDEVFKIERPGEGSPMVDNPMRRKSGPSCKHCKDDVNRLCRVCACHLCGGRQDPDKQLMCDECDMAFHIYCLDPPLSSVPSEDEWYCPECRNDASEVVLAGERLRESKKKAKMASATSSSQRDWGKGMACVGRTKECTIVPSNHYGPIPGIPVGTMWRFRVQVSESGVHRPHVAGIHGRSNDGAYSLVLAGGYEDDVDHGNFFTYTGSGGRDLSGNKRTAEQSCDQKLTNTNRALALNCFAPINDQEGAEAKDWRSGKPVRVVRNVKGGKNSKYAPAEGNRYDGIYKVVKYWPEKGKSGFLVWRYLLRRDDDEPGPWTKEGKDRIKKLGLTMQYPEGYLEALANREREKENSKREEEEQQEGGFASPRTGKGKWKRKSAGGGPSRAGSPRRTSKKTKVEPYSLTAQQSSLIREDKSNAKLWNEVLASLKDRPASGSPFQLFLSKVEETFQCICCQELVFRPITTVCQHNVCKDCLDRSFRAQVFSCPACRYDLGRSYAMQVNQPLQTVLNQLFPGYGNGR

[2] = MIN6 cell viability loss – mouse insulinoma, cytotoxicity control, dose response (AID 2122); type: functional;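 further: confirmatory high-throughput counterscreen run to flag cytotoxic compounds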
[3] = decrease of insulin promoter-GFP reporter – imaging, high-content screening, mouse beta cells (AID 1628); type: functional; details: MIN6
[4] = reduced cellular PGC1a acetyl-lysine signal – cell-based, cherry-picked samples, dose response (AID 720514); type: functional;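 further: potency may reflect raised or lowered acetylation signal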
Streptococcus = assay: GAS UMAA2166 growth inhibition – luminescence, BacTiterGlo, counter-screen for streptokinase expression inhibitor project, dose response (AID 1915); type: functional, organism-based;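 further: potency for reduction of bacterial viability or growth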
[5] = system: Streptococcus sp. 'group A'; assay: Streptococcus pyogenes SK(-)GAS viability under kanamycin – luminescence, BacTiterGlo, confirmation, counter-screen for streptokinase expression inhibitor project, dose response (AID 1900); type: functional, organism-based
[6] = A2780 cell killing – plate reader, dry powder samples, cytotoxicity control, dose response (AID 743046); type: functional, cell-based
[7] = non-specific 3'UTR reporter inhibition in Clone20-Shn3RL – cell-based, Renilla luciferase, cherry-picked, counter-screen for Shn3 inhibitor project, dose response (AID 624133); type: functional
[8] = PAX5 cellular inhibition readout – cell-based, plate reader, dry powder samples, selectivity assay for PAX8 inhibitor project, dose response (AID 743047); type: functional;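 further: HEK293 cells carrying a Pax5 driven CD19 promoter luciferase reporter; potency of inhibitors that lower reporter luminescence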
[9] = inhibitors acting on PAX2 in cells – cell-based, plate reader, dry powder samples, selectivity assay for PAX8 inhibitor project, dose response (AID 743048); type: functional;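 further: HEK293 cells carrying a WT1 promoter luciferase reporter driven by expressed Pax2; potency is for inhibition of Pax2 driven reporter signal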
[10] = NIH3T3 cell viability loss – ATP luminescence, mouse fibroblasts, counter-screen, dose response (AID 2010); type: functional, cell-based;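 further: cells exposed to compound for about 90 hours before reading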
[11] = PAX8-dependent cell viability loss – plate reader, dry powder, dose response (AID 743049); type: functional, cell-based
[12] = target: T1, Probable nicotinate-nucleotide adenylyltransferase (Staphylococcus aureus (strain N315), UniProt P65502); type: functional, Staphylococcus aureus subsp. aureus N315;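 on IC50 Mean: confirmatory dose-response retesting of NadD inhibitor hits first found in an ultra-high-throughput screen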
T1 sequence (P65502 whole entry): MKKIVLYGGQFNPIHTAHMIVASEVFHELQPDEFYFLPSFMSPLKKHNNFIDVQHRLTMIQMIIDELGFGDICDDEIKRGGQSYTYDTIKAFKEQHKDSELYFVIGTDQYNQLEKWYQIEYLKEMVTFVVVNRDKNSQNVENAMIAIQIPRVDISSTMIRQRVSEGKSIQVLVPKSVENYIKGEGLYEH

[13] = IGROV1 cell killing – plate reader, dry powder samples, PAX8 inhibitor project, dose response (AID 743043); type: functional, cell-based; details: IGROV-1
[14] = COV362 cell viability loss – plate reader, dry powder, SA12, cytotoxicity control for PAX8 inhibitor project, dose response (AID 743144); type: functional, cell-based
[15] = target: T2, Type-1 angiotensin II receptor (Homo sapiens, UniProt P30556); assay: agonist activity at AGTR1 – cell-based, uHTS hits, selectivity assay for APJ receptor agonist project, dose response (AID 488865); type: functional;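 further: beta-arrestin recruitment to AT1 measured by enzyme fragment complementation luminescence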
T2 sequence (P30556 whole entry): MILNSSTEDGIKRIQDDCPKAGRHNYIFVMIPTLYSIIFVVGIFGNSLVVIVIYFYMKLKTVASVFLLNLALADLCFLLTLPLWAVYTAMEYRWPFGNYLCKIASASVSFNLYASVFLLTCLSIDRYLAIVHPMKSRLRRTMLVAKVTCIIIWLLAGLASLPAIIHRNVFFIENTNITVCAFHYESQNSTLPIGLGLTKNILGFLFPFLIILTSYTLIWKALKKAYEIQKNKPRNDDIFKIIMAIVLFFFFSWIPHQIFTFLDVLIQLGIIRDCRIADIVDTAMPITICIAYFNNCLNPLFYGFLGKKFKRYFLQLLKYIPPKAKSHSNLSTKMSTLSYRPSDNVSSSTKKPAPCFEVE

[16] = OV-90 cell viability loss – plate reader, dry powder, SA8, PAX8 inhibitor project, dose response (AID 743149); type: functional, cell-based
[17] = target: T1, Probable nicotinate-nucleotide adenylyltransferase; type: functional, Staphylococcus aureus subsp. aureus N315; details: read-out: IC50_Mean
[18] = reduction of Shn3 3'UTR-driven luciferase in osteoblasts – cell-based, Clone20 osteoblasts, firefly luciferase, cherry-picked, dose response (AID 624132); type: functional;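 further: firefly luciferase luminescence from reporter carrying the Shn3 3'UTR in osteoblasts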
[19] = Trypanosoma cruzi growth suppression in host cells – NIH3T3 host cells, beta-gal luminescence, confirmation (AID 2044); type: functional, cell-based;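 further: intracellular parasites grown in NIH/3T3 mouse fibroblasts as host cells; luminescent beta-galactosidase reporter signal from transgenic T. cruzi replicating inside host cells; inhibitors lower the luminescence signal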
[20] = OVCAR4 cell viability loss – plate reader, dry powder, SA11, cytotoxicity control for PAX8 inhibitor project, dose response (AID 743150); type: functional, cell-based; details: OVCAR-4
Paired box protein Pax-8 = Paired box protein Pax-8 (Homo sapiens, UniProt Q06710); assay: PAX8 transcriptional activity inhibition in RMG-I – RMG-I cells, luciferase, cherry-pick, dose response (AID 687027); type: functional, cell-based;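 further: luciferase reporter driven by Pax8 target thyroperoxidase promoter measured by SteadyGlo luminescence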
Chain of Paired box protein Pax-8 (Q06710 whole entry): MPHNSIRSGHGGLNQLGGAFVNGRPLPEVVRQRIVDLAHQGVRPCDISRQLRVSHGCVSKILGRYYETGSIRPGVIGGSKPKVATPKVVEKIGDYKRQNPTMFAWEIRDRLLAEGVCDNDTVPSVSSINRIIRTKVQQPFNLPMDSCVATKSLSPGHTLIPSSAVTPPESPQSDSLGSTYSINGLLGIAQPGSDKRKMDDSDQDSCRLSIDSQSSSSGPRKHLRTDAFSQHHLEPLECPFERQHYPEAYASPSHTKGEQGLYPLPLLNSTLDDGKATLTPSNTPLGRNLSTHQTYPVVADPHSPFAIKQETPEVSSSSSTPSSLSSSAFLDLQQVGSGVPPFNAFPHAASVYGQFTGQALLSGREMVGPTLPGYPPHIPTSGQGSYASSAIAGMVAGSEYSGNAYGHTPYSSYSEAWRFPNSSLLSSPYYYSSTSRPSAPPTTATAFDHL

[21] = loss of viability in HepG2 cells – cell-based, CellTiter-Glo, cherry-picked, cytotoxicity control for Shn3 inhibitor project, dose response (AID 624134); type: functional
cells [22] = type: functional, cell-based
cells [23] = type: functional, cell-based; remark: listed apart in the source
[24] = OVCAR-3 cell viability loss – plate reader, dry powder samples, PAX8 inhibitor project, dose response (AID 743044); type: functional, cell-based
[25] = COV434 cell viability loss – plate reader, dry powder, SA7, cytotoxicity control for PAX8 inhibitor project, dose response (AID 743145); type: functional, cell-based
[26] = target: Induced myeloid leukemia cell differentiation protein Mcl-1 (Homo sapiens, UniProt Q07820); type: functional
Chain of Induced myeloid leukemia cell differentiation protein Mcl-1 (Q07820 whole entry): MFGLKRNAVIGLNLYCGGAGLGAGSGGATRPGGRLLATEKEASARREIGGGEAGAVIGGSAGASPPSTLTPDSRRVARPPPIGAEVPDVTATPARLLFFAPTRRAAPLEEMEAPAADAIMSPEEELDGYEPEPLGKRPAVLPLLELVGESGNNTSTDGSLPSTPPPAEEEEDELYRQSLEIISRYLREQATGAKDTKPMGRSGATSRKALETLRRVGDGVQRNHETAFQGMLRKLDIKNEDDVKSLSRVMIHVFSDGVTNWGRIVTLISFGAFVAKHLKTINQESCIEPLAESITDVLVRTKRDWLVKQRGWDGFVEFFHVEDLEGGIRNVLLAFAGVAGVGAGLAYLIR

[27] = target: Bifunctional protein GlmU (Mycobacterium tuberculosis, UniProt P9WMN3); assay: Inhibitors of Mycobacterial Glucosamine-1-phosphate acetyl transferase (GlmU). Secondary screen.; parameters: species or system Mycobacterium tuberculosis H37Rv
Chain of Bifunctional protein GlmU (P9WMN3 whole entry): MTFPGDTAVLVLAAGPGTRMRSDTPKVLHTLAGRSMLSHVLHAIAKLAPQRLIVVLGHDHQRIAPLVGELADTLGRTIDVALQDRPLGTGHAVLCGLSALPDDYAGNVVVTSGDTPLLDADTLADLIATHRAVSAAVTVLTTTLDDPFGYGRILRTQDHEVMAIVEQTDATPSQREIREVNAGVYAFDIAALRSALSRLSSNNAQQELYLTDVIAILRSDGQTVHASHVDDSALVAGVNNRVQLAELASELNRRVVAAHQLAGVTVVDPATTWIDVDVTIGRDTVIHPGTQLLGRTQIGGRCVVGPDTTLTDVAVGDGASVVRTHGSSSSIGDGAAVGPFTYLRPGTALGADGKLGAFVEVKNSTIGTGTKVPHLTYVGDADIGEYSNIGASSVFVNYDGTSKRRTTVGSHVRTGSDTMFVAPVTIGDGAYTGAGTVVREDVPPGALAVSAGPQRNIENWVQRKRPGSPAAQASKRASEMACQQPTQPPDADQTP

Caspase-6 = Caspase-6 (Homo sapiens, UniProt P55212); assay: inhibition of CASP6 peptide cleavage – biochemical, VEID-R110 fluorescence, cherry-pick, dose response (AID 720632)
Chain of Caspase-6 (P55212 24-179 limits assumed): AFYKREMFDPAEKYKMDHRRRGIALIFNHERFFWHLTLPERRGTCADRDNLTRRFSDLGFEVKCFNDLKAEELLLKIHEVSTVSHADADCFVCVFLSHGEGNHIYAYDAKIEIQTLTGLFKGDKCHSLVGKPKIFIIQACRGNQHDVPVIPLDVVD
Chain of Caspase-6 (P55212 194-293 limits assumed): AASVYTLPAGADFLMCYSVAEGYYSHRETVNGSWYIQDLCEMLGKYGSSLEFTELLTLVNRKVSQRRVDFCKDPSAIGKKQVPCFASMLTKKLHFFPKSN

[28] = target: E3 ubiquitin-protein ligase XIAP (Homo sapiens, UniProt P98170); assay: Counter Screen using XIAP-Bir3 for Chemical Antagonists of Bir1/2 domains of IAP-family anti-apoptotic proteins. [Related pubchem assays (depositor defined):AID1018, AID1449, AID1514, AID1638, AID1749, AID1750, AID488957, AID488963]
Chain of E3 ubiquitin-protein ligase XIAP (P98170 whole entry): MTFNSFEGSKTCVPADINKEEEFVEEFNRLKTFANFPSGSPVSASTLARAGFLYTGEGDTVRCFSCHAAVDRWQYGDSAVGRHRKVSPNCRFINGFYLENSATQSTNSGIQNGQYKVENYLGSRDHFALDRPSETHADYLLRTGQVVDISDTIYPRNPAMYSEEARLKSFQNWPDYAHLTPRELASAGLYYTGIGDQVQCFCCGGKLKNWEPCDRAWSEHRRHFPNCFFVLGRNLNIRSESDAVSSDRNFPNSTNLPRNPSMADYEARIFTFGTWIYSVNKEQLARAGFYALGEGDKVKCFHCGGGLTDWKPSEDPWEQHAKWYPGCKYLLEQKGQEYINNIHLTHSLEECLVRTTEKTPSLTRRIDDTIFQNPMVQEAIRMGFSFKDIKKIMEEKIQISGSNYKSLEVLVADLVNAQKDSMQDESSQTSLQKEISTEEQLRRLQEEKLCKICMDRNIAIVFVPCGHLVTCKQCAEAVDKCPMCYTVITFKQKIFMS

Genome polyprotein = Genome polyprotein (dengue virus type 2, UniProt P29990); assay: flavivirus cap methylation enzyme inhibition – biochemical, confirmation dose response, primary screen (AID 588689); type: functional
Chain of Genome polyprotein (P29990 2492-3391 limits assumed): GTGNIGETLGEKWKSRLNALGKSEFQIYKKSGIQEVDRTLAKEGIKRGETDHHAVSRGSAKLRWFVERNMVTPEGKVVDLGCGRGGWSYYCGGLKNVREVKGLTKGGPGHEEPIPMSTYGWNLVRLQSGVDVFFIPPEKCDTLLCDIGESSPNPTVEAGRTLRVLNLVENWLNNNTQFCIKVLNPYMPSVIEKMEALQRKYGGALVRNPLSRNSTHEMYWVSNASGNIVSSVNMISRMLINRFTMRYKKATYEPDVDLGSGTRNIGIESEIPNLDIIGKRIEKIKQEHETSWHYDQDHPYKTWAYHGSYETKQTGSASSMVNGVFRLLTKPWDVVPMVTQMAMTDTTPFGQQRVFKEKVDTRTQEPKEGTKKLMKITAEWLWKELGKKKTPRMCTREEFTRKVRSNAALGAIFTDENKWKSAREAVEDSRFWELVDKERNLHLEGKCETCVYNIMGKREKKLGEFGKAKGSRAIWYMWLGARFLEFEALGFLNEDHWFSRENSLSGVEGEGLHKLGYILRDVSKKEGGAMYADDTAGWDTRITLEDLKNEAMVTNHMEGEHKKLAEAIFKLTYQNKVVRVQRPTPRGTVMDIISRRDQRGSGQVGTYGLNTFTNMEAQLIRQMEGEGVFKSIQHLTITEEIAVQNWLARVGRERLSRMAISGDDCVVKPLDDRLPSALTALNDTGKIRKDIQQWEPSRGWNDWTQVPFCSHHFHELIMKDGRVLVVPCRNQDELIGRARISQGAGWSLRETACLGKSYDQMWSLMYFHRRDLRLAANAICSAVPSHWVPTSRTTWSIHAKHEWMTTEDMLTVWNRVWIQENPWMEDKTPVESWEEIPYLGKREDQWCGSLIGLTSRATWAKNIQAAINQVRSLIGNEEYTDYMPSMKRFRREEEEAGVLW

Aminopeptidase N = target: T3, Aminopeptidase N (Plasmodium falciparum FcB1/Columbia, UniProt O96935); assay: malaria alanyl aminopeptidase activity blockers – biochemical, fluorogenic H-Leu-NHMec substrate, 1536-well (AID 1445); parameters: species or system Plasmodium falciparum 3D7, 3D7
T3 sequence (O96935 whole entry): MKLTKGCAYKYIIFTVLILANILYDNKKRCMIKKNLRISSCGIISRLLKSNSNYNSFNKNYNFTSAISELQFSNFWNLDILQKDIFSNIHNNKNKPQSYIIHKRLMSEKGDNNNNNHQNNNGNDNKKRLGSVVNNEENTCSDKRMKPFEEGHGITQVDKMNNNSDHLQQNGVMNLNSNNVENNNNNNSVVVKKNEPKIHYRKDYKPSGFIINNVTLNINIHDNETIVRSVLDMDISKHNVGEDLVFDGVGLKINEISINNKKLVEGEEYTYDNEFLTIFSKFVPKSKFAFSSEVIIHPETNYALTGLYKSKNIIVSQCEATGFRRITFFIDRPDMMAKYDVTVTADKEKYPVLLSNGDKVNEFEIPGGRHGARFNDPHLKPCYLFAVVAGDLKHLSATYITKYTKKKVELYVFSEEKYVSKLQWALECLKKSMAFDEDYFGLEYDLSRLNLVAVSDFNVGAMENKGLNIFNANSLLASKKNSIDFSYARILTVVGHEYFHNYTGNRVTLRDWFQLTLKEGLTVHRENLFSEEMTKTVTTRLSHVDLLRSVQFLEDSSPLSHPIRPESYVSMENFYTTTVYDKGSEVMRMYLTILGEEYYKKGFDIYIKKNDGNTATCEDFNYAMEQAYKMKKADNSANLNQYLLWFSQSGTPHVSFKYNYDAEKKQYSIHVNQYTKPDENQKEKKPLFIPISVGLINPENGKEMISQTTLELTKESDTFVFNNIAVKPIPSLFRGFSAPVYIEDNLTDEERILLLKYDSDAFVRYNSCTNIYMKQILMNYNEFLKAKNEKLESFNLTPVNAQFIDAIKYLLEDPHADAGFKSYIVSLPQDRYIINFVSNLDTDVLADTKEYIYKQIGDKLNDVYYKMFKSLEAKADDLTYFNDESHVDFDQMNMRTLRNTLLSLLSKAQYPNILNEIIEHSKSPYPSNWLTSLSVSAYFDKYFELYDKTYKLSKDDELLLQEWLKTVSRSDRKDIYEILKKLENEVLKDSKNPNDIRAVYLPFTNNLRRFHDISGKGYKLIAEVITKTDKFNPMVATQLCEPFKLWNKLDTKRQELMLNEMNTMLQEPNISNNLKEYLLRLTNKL

[29] = target: T4, Long-chain-fatty-acid--AMP ligase FadD28 (Mycobacterium tuberculosis, UniProt P9WQ59); assay: Fluorescence polarization aasay to screen for inhibitors that compete for the binding of FadD28 to a bisubstrate Measured in Biochemical System Using Plate Reader - 2147-01_Inhibitor_Dose_CherryPick_Activity.; type: functional, Mycobacterium tuberculosis H37Rv
T4 sequence (P9WQ59 whole entry): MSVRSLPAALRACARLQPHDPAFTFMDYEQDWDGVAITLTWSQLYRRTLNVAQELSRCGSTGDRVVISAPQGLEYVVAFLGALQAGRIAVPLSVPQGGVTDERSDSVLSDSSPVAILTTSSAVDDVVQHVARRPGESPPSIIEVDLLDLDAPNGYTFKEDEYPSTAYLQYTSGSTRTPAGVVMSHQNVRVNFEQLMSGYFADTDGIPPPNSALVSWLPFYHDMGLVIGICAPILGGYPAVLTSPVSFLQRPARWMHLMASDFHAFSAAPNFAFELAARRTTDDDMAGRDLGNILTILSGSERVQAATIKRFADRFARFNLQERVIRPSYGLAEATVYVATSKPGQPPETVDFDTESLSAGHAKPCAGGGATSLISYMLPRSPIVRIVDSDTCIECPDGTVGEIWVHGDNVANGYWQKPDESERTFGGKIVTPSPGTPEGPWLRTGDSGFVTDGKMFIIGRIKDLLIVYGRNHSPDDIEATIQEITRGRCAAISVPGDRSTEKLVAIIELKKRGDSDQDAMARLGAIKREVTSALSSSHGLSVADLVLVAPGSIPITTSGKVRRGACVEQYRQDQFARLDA

[30] = target: RNA-editing ligase 1, mitochondrial (Trypanosoma brucei brucei, UniProt P86926); assay: inhibition of trypanosome RNA editing ligase – biochemical, fluorescence, Trypanosoma brucei, dose response (AID 1117295); type: functional
Chain of RNA-editing ligase 1, mitochondrial (P86926 whole entry): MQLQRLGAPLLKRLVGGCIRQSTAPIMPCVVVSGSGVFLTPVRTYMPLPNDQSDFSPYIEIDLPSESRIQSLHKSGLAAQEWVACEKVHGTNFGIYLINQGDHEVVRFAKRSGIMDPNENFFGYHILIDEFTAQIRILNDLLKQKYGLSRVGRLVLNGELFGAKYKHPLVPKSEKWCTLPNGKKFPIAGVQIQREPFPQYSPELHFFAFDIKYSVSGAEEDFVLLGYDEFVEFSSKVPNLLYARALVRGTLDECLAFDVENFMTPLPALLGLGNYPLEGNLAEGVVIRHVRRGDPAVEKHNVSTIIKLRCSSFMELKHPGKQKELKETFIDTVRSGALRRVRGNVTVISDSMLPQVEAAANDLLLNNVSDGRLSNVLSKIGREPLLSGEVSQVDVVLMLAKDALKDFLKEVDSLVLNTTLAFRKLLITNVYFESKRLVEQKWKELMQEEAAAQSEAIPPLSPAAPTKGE

[O-][Cl+3]([O-])([O-])[O-].c1ccc(-c2cc(-c3ccccc3)[n+](-c3ccccc3)c(-c3ccccc3)c2)cc1
inactive: IC50 [1] 14.3 µM
active: AC50 (INS1) 2.59 µM | IC50 [2] 1.77 µM | IC50 [3] 1.06 µM

CCOc1ccc(N2C(=O)Cc3ccccc3C2=O)cc1
active: AC50 [4] 32.7 µM

Cc1cc(C)c2sc(NNC(=O)c3ccc(S(=O)(=O)N4CCc5ccccc5C4)cc3)nc2c1
inactive: EC50 [15] > 100 µM
> 350 µM (not active): EC50 (cells [23])
active: EC50 (Streptococcus) 3.44 µM | EC50 [5] 1.29 µM | AC50 [6] 6.67 µM | AC50 [7] 1.35 µM | AC50 [8] 4.85 µM | AC50 [9] 3.1 µM | EC50 [10] 1.82 µM | AC50 [11] 10.3 µM | IC50 [12] 7.44 µM | AC50 (INS1) 1.36 µM | AC50 [13] 8.92 µM | AC50 [14] 19.2 µM | AC50 [16] 20.8 µM | IC50 [17] 42.2 µM | AC50 [18] 1.8 µM | EC50 [19] 1.22 µM | AC50 [20] 43.4 µM | AC50 (Paired box protein Pax-8) 2.27 µM | AC50 [21] 33.1 µM | EC50 (cells [22]) 41.8 µM | AC50 [24] 6.31 µM | AC50 [25] 12.4 µM

O=C(Nc1cccc(Oc2ccc(C(=O)O)c(C(=O)O)c2)c1)c1ccc(-c2ccccc2)cc1
active: IC50 [26] 4.44 µM | IC50 [27] 147 µM | AC50 (Caspase-6) 15.7 µM | IC50 (Genome polyprotein) 20.5 µM | IC50 (Aminopeptidase N) 44.7 µM | AC50 [29] 82.4 µM
inactive: IC50 [28] > 20 µM

COC(=O)C1=C(C)N(Cc2ccccc2C(F)(F)F)C(NCc2ccc(C(F)(F)F)cc2)=NC1c1cccc(F)c1 (configuration not stated)
inactive: IC50 [30] > 96.6 µM
